Literature values in US20150283242A1, “EFFECTIVE PHARMACEUTICAL CARRIER FOR POORLY BIOAVAILABLE DRUGS” (Hovid Berhad, priority 2007, published 2015).

Row | log P (partition coefficient) | Compound
1 | 4.77 | Cc1ccc(C)c(OCCCC(C)(C)C(=O)O)c1 [gemfibrozil]
2 | 4.27 | COc1ccc2c(c1)c(CC(=O)O)c(C)n2C(=O)c1ccc(Cl)cc1 [indomethacin]
3 | 2.42 | CC[C@H](C)C(=O)O[C@H]1C[C@H](O)C=C2C=C[C@H](C)[C@H](CC[C@@H](O)C[C@@H](O)CC(=O)O)[C@H]21 [pravastatin]
4 | more than 10 | COC1=C(OC)C(=O)C(C/C=C(\C)CC/C=C(\C)CC/C=C(\C)CC/C=C(\C)CC/C=C(\C)CC/C=C(\C)CC/C=C(\C)CC/C=C(\C)CC/C=C(\C)CCC=C(C)C)=C(C)C1=O [ubiquonone]
